Laboratory results from patent publication US5204338A, “Oxalylamino acid derivatives and their use as medicaments for inhibiting proline hydroxylase” (Hoechst Aktiengesellschaft, priority 1990, dated 1993).
Counter-ions that a name gives are not always drawn.

What was measured:
calvaria culture = assay: calvaria culture: reduction of the hydroxyproline/proline quotients in metabolic labeling with ^14 C-proline; assay type: cell-based; settings: 50% reduction of the hydroxyproline/proline quotients in metabolic labeling with ^14 C-proline; esters
Description: The inhibitory activity can also be determined in cell or tissue culture. To do this, fibroblasts or other collagen-producing cells or calvaria or other collagen-producing organs can be employed. The inhibitory activity of substances according to the invention in calvaria culture is collated in Table 3. The concentration is indicated which leads to a 50% reduction of the hydroxyproline/proline quotients in metabolic labeling with ^14 C-proline (IC50).

[1] = tested on: Clq biosynthesis of macrophages; settings: W. Muller et al., FEBS Lett. 90, 218 (1978); cited from earlier work
prolyl hydroxylase = prolyl hydroxylase (Homo sapiens, UniProt P13674); assay: enzyme test: hydroxylation of underhydroxylated collagen with prolyl hydroxylase in the presence of iron(II) ions, α-keto glutarate and ascorbate; assay type: biochemical; settings: concentration which leads to an 80% inhibition of enzyme activity (the value is indicated as Ki); salts
Sequence of prolyl hydroxylase (P13674 18-534): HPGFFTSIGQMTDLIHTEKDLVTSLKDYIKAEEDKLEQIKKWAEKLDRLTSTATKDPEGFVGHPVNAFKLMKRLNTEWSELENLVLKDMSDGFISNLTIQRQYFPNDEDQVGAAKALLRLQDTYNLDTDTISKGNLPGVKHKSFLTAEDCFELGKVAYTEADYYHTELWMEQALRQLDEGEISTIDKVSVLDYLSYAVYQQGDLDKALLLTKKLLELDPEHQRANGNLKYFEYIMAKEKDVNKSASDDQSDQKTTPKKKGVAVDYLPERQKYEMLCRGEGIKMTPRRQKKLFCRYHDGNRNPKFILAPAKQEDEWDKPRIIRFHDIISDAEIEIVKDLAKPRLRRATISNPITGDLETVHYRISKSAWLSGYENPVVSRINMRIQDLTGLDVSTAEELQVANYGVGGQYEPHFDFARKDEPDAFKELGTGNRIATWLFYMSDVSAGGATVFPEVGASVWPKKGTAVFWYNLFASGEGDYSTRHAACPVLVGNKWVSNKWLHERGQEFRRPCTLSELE
Sequence of prolyl hydroxylase (P07237 18-508 partner): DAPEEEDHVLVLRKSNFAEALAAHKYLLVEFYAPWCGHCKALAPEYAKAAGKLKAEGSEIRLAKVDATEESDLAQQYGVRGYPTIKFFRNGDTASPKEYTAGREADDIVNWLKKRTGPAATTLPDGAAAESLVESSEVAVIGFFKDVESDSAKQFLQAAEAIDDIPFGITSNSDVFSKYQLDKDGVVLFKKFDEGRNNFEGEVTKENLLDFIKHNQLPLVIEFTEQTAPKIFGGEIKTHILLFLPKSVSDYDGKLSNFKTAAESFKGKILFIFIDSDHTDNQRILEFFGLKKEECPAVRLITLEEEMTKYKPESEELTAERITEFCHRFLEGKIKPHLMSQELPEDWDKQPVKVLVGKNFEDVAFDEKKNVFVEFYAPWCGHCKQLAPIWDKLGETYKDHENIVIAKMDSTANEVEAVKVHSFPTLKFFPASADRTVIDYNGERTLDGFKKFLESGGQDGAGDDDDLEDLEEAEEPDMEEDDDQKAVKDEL

SMILES: COC(=O)C(=O)N[C@@H](C)C(=O)OC [Example 1, (N-Oxalyl)-L-alanine dimethyl ester]
- IC50 (calvaria culture): 350 µM

SMILES: c1ccc(-c2ccccn2)nc1 [α, α-dipyridyl]
- inhibition of Clq biosynthesis [1]: inhibition of Clq biosynthesis of macrophages

SMILES: C[C@H](NC(=O)C(=O)O)C(=O)O [dipotassium salt]
- Ki (prolyl hydroxylase): 40 µM

SMILES: COC(=O)CNC(=O)C(=O)OC [Example 3, (N-Oxalyl)-L-glycine dimethyl ester]
- IC50 (calvaria culture): 2 µM

SMILES: O=C(O)CNC(=O)C(=O)O [Example 10, (N-Oxalyl)-L-glycine dipotassium salt]
- Ki (prolyl hydroxylase): 10 µM
